Numbered stars: 1 amine (or outer) side, 2 acyl side, 3 side chain; on linkers, the order of the positions; unused ones are H or OH. Bridge positions count the residues as written; N and C are the ends. Square brackets hold non-standard residues; d marks the D form. Peptide text beside a SMILES is read from it. Pro(trans-4-F) = O=C(O)[C@@H]1C[C@@H](F)CN1; Bip = N[C@@H](Cc1ccc(-c2ccccc2)cc1)C(=O)O; Tpi = O=C(O)[C@@H]1Cc2c([nH]c3ccccc23)CN1; Dip = N[C@H](C(=O)O)C(c1ccccc1)c1ccccc1; X1 = O=C([C@@H]1Cc2ccccc2N1[*:1])[*:2]; 1Nal = N[C@@H](Cc1cccc2ccccc12)C(=O)O; TBMB = c1c(C[*:1])cc(C[*:3])cc1C[*:2]; NMeR = CN[C@@H](CCCNC(=N)N)C(=O)O; hArg = N=C(N)NCCCC[C@H](N)C(=O)O; 3Pal = N[C@@H](Cc1cccnc1)C(=O)O; 4Pal = N[C@@H](Cc1ccncc1)C(=O)O; Cha = N[C@@H](CC1CCCCC1)C(=O)O; Pip = O=C(O)[C@@H]1CCCCN1; Dpg = CCCC(N)(CCC)C(=O)O; Aze = O=C(O)[C@@H]1CCN1
Test: Plasma stability profiling method 1 (35% plasma, MALDI-TOF, qualitative)
Assay type: in vitro ADME, rat
Settings: 35% rat plasma, 37 deg C, method 1, comparative estimate
Protocol: Three methods were employed to assess the stability of bicycles (peptides conjugated to molecular scaffolds) in plasma.
A rapid plasma stability profiling assay was developed that employed mass spectrometric detection (MALDI-TOF, Voyager DE, Applied Biosystems) of the parent mass, until the time when the parent peptide mass was no longer observable. Specifically, 200 uM of peptide was incubated in the presence of 35% rat or human plasma (Sera labs, using citrate as anticoagulant) at 37 deg C., which was supplemented with 1×PBS (derived from a 10×PBS Stock, Sigma). At various time points (i.e. t=0, 3, 24 hrs, henceafter daily up to 10 days), 2 uL of sample was added to 18 uL of 30 mM ammonium bicarbonate in a 1:1 mixture of acetonitrile:H2O. Samples were frozen at −80 deg C. until the time of analysis. For mass spectrometric analysis that determines the approximate detection window of the peptide, the acetonitrile:H2O-diluted sample of a given time point was spotted directly (0.7 uL) onto the MALDI plate. Matrix (alpha-cyanocinnamic acid, Sigma, prepared as a saturated solution in 1:1 acetonitrile:water containing 0.1% trifluoroacetic acid) was layered over the sample (1 uL). At a similar laser intensity setting on the MALDI TOF, the time could then be determined until parent peptide was no longer detectable. It should be noted that this is a qualitative assay serves to detect relative changes in plasma stability.

Observable in rat plasma, for days [days] | SMILES
2 | CC(=O)N[C@H]1CSCc2cc3cc(c2)CSC[C@H](NC(=O)[C@H](CCCNC(=N)N)NC(=O)[C@H](C)NC(=O)[C@@H]2CCCN2C(=O)[C@H](Cc2cccc4ccccc24)NC(=O)[C@H](CO)NC1=O)C(=O)N[C@@H](CC(C)C)C(=O)N[C@@H](Cc1c[nH]cn1)C(=O)N[C@@H](CCC(N)=O)C(=O)N[C@@H](CC(=O)O)C(=O)N[C@@H](CC(C)C)C(=O)N[C@H](C(N)=O)CSC3 [Ac-(06-34-18) 1NAL2] (Ac-CS[1Nal]PARCLHQDLC-NH2; linker 1-7-13 via TBMB)
2 | CC(=O)N[C@H]1CSCc2cc3cc(c2)CSC[C@H](NC(=O)[C@H](CCCNC(=N)N)NC(=O)[C@H](C)NC(=O)[C@@H]2CCCN2C(=O)[C@H](C(c2ccccc2)c2ccccc2)NC(=O)[C@H](CO)NC1=O)C(=O)N[C@@H](CC(C)C)C(=O)N[C@@H](Cc1c[nH]cn1)C(=O)N[C@@H](CCC(N)=O)C(=O)N[C@@H](CC(=O)O)C(=O)N[C@@H](CC(C)C)C(=O)N[C@H](C(N)=O)CSC3 [Ac-(06-34-18) 3,3-DPA2] (Ac-CS[Dip]PARCLHQDLC-NH2; linker 1-7-13 via TBMB)
2 | CC(=O)N[C@H]1CSCc2cc3cc(c2)CSC[C@H](NC(=O)[C@H](CCCNC(=N)N)NC(=O)[C@H](C)NC(=O)[C@@H]2CCCN2C(=O)[C@H](Cc2cccnc2)NC(=O)[C@H](CO)NC1=O)C(=O)N[C@@H](CC(C)C)C(=O)N[C@@H](Cc1c[nH]cn1)C(=O)N[C@@H](CCC(N)=O)C(=O)N[C@@H](CC(=O)O)C(=O)N[C@@H](CC(C)C)C(=O)N[C@H](C(N)=O)CSC3 [Ac-(06-34-18) 3Pal2] (Ac-CS[3Pal]PARCLHQDLC-NH2; linker 1-7-13 via TBMB)
2 | CC(=O)N[C@H]1CSCc2cc3cc(c2)CSC[C@H](NC(=O)[C@H](CCCNC(=N)N)NC(=O)[C@H](C)NC(=O)[C@@H]2CCCN2C(=O)[C@H](Cc2ccc(-c4ccccc4)cc2)NC(=O)[C@H](CO)NC1=O)C(=O)N[C@@H](CC(C)C)C(=O)N[C@@H](Cc1c[nH]cn1)C(=O)N[C@@H](CCC(N)=O)C(=O)N[C@@H](CC(=O)O)C(=O)N[C@@H](CC(C)C)C(=O)N[C@H](C(N)=O)CSC3 [Ac-(06-34-18) 4,4,BPal2] (Ac-CS[Bip]PARCLHQDLC-NH2; linker 1-7-13 via TBMB)
2 | CC(=O)N[C@H]1CSCc2cc3cc(c2)CSC[C@H](NC(=O)[C@H](CCCNC(=N)N)NC(=O)[C@H](C)NC(=O)[C@@H]2C[C@@H](F)CN2C(=O)[C@H](Cc2c[nH]c4ccccc24)NC(=O)[C@H](CO)NC1=O)C(=O)N[C@@H](CC(C)C)C(=O)N[C@@H](Cc1c[nH]cn1)C(=O)N[C@@H](CCC(N)=O)C(=O)N[C@@H](CC(=O)O)C(=O)N[C@@H](CC(C)C)C(=O)N[C@H](C(N)=O)CSC3 [Ac-(06-34-18) 4FluoPro3] (Ac-CSW[Pro(trans-4-F)]ARCLHQDLC-NH2; linker 1-7-13 via TBMB)
2 | CC(=O)N[C@H]1CSCc2cc3cc(c2)CSC[C@H](NC(=O)[C@H](CCCNC(=N)N)NC(=O)[C@H](C)NC(=O)[C@@H]2CCCN2C(=O)[C@H](Cc2ccncc2)NC(=O)[C@H](CO)NC1=O)C(=O)N[C@@H](CC(C)C)C(=O)N[C@@H](Cc1c[nH]cn1)C(=O)N[C@@H](CCC(N)=O)C(=O)N[C@@H](CC(=O)O)C(=O)N[C@@H](CC(C)C)C(=O)N[C@H](C(N)=O)CSC3 [Ac-(06-34-18) 4Pal2] (Ac-CS[4Pal]PARCLHQDLC-NH2; linker 1-7-13 via TBMB)
>10 | CC(=O)N[C@H]1CSCc2cc3cc(c2)CSC[C@H](NC(=O)[C@H](CCCCNC(=N)N)NC(=O)[C@H](C)NC(=O)[C@@H]2CCN2C(=O)[C@H](Cc2c[nH]c4ccccc24)NC(=O)[C@H](CO)NC1=O)C(=O)N[C@@H](CC(C)C)C(=O)N[C@@H](Cc1c[nH]cn1)C(=O)N[C@@H](CCC(N)=O)C(=O)N[C@@H](CC(=O)O)C(=O)N[C@@H](CC(C)C)C(=O)N[C@H](C(N)=O)CSC3 [Ac-(06-34-18) Aze3 HomoArg5] (Ac-CSW[Aze]A[hArg]CLHQDLC-NH2; linker 1-7-13 via TBMB)
>10 | CC(=O)N[C@H]1CSCc2cc3cc(c2)CSC[C@H](NC(=O)[C@H](CCCNC(=N)N)N(C)C(=O)[C@H](C)NC(=O)[C@@H]2CCN2C(=O)[C@H](Cc2c[nH]c4ccccc24)NC(=O)[C@H](CO)NC1=O)C(=O)N[C@@H](CC(C)C)C(=O)N[C@@H](Cc1c[nH]cn1)C(=O)N[C@@H](CCC(N)=O)C(=O)N[C@@H](CC(=O)O)C(=O)N[C@@H](CC(C)C)C(=O)N[C@H](C(N)=O)CSC3 [Ac-(06-34-18) Aze3 NMeArg5] (Ac-CSW[Aze]A[NMeR]CLHQDLC-NH2; linker 1-7-13 via TBMB)
2 | CC(=O)N[C@H]1CSCc2cc3cc(c2)CSC[C@H](NC(=O)[C@H](CCCNC(=N)N)NC(=O)[C@H](C)NC(=O)[C@@H]2CCCN2C(=O)[C@H](CC2CCCCC2)NC(=O)[C@H](CO)NC1=O)C(=O)N[C@@H](CC(C)C)C(=O)N[C@@H](Cc1c[nH]cn1)C(=O)N[C@@H](CCC(N)=O)C(=O)N[C@@H](CC(=O)O)C(=O)N[C@@H](CC(C)C)C(=O)N[C@H](C(N)=O)CSC3 [Ac-(06-34-18) Cha2] (Ac-CS[Cha]PARCLHQDLC-NH2; linker 1-7-13 via TBMB)
2 | CCCC1(CCC)NC(=O)[C@@H](NC(C)=O)CSCc2cc3cc(c2)CSC[C@H](NC(=O)[C@H](CCCNC(=N)N)NC(=O)[C@H](C)NC(=O)[C@@H]2CCCN2C(=O)[C@H](Cc2c[nH]c4ccccc24)NC1=O)C(=O)N[C@@H](CC(C)C)C(=O)N[C@@H](Cc1c[nH]cn1)C(=O)N[C@@H](CCC(N)=O)C(=O)N[C@@H](CC(=O)O)C(=O)N[C@@H](CC(C)C)C(=O)N[C@H](C(N)=O)CSC3 [Ac-(06-34-18) Dpg1] (Ac-C[Dpg]WPARCLHQDLC-NH2; linker 1-7-13 via TBMB)
2 | CC(=O)N[C@H]1CSCc2cc3cc(c2)CSC[C@H](NC(=O)[C@H](CCCNC(=N)N)NC(=O)[C@H](C)NC(=O)[C@@H]2Cc4ccccc4N2C(=O)[C@H](Cc2c[nH]c4ccccc24)NC(=O)[C@H](CO)NC1=O)C(=O)N[C@@H](CC(C)C)C(=O)N[C@@H](Cc1c[nH]cn1)C(=O)N[C@@H](CCC(N)=O)C(=O)N[C@@H](CC(=O)O)C(=O)N[C@@H](CC(C)C)C(=O)N[C@H](C(N)=O)CSC3 [Ac-(06-34-18) Ind3] (Ac-CSW[X1]ARCLHQDLC-NH2; linker 1-7-13 via TBMB)
2 | CC(=O)N[C@H]1CSCc2cc3cc(c2)CSC[C@H](NC(=O)[C@H](CCCNC(=N)N)NC(=O)[C@H](C)NC(=O)[C@@H]2CCCN2C(=O)[C@@H]2Cc4c([nH]c5ccccc45)CN2C(=O)[C@H](CO)NC1=O)C(=O)N[C@@H](CC(C)C)C(=O)N[C@@H](Cc1c[nH]cn1)C(=O)N[C@@H](CCC(N)=O)C(=O)N[C@@H](CC(=O)O)C(=O)N[C@@H](CC(C)C)C(=O)N[C@H](C(N)=O)CSC3 [Ac-(06-34-18) NorHar2] (Ac-CS[Tpi]PARCLHQDLC-NH2; linker 1-7-13 via TBMB)
2 | CC(=O)N[C@H]1CSCc2cc3cc(c2)CSC[C@H](NC(=O)[C@H](CCCNC(=N)N)NC(=O)[C@H](C)NC(=O)[C@@H]2Cc4c([nH]c5ccccc45)CN2C(=O)[C@H](Cc2c[nH]c4ccccc24)NC(=O)[C@H](CO)NC1=O)C(=O)N[C@@H](CC(C)C)C(=O)N[C@@H](Cc1c[nH]cn1)C(=O)N[C@@H](CCC(N)=O)C(=O)N[C@@H](CC(=O)O)C(=O)N[C@@H](CC(C)C)C(=O)N[C@H](C(N)=O)CSC3 [Ac-(06-34-18) NorHar3] (Ac-CSW[Tpi]ARCLHQDLC-NH2; linker 1-7-13 via TBMB)
2 | CC(=O)N[C@H]1CSCc2cc3cc(c2)CSC[C@H](NC(=O)[C@H](CCCNC(=N)N)NC(=O)[C@H](C)NC(=O)[C@@H]2CCCCN2C(=O)[C@H](Cc2c[nH]c4ccccc24)NC(=O)[C@H](CO)NC1=O)C(=O)N[C@@H](CC(C)C)C(=O)N[C@@H](Cc1c[nH]cn1)C(=O)N[C@@H](CCC(N)=O)C(=O)N[C@@H](CC(=O)O)C(=O)N[C@@H](CC(C)C)C(=O)N[C@H](C(N)=O)CSC3 [Ac-(06-34-18) Pip3] (Ac-CSW[Pip]ARCLHQDLC-NH2; linker 1-7-13 via TBMB)
2 | CC(=O)N[C@H]1CSCc2cc3cc(c2)CSC[C@H](NC(=O)[C@H](CCCNC(=N)N)NC(=O)[C@H](CO)NC(=O)[C@@H]2CCCN2C(=O)[C@H](Cc2c[nH]c4ccccc24)NC(=O)[C@H](CO)NC1=O)C(=O)N[C@@H](CC(C)C)C(=O)N[C@@H](Cc1c[nH]cn1)C(=O)N[C@@H](CCC(N)=O)C(=O)N[C@@H](CC(=O)O)C(=O)N[C@@H](CC(C)C)C(=O)N[C@H](C(N)=O)CSC3 [Ac-(06-34-18) WPSR] (Ac-CSWPSRCLHQDLC-NH2; linker 1-7-13 via TBMB)

— patent publication US11912794B2, “Modulation of structured polypeptide specificity” (BicycleRD Limited, priority 2011, dated 2024)
